# PubChem BioAssay (NCI)
#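 Cells were grown in 96-well plates and exposed to each compound for 48 hours at five concentrations; endpoints were interpolated linearly between bracketing concentrations, or set to the highest concentration if not reached. GI50 is the concentration that inhibits growth by half. TGI: concentration producing complete growth inhibition.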
# Legend:
# Experiment in all cases: NCI tumour cell line growth inhibition, 48 h
# [1] = tested on: SF-539 CNS
# [2] = tested on: SK-MEL-2 melanoma
# [3] = tested on: HOP-62 NSCLC
# [4] = tested on: K-562 leukemia
# [5] = tested on: T-47D breast
# [6] = tested on: EKVX NSCLC
# [7] = tested on: IGROV1 ovarian
# [8] = tested on: RPMI-8226 leukemia
# [9] = tested on: DU-145 prostate
# [10] = tested on: OVCAR-3 ovarian
# [11] = tested on: SNB-75 CNS
# [12] = tested on: UACC-62 melanoma
# [13] = tested on: 786-0 renal
# [14] = tested on: HOP-92 NSCLC
# [15] = tested on: PC-3 prostate
# [16] = tested on: SF-295 CNS
# [17] = tested on: MDA-MB-231 breast
# [18] = tested on: BT-549 breast
# [19] = tested on: CCRF-CEM leukemia
# [20] = tested on: HL-60(TB) leukemia
# [21] = tested on: UO-31 renal
# [22] = tested on: HCT-116 colon
# [23] = tested on: HCC-2998 colon
# [24] = tested on: SK-MEL-28 melanoma
# [25] = tested on: SR leukemia
# [26] = tested on: NCI-H23 lung
# [27] = tested on: SF-268 CNS
# [28] = tested on: A498 renal
# [29] = tested on: NCI-H226 lung
smiles,measurement,setting,value
CC1=C(COCCOC(=O)c2ccc(S(=O)(=O)F)cc2)C2=C(C)C3(CC3)[C@@](C)(O)C(=O)C2=C1,GI50,[1],17.7 µM
same,TGI,[1],33.9 µM
same,GI50,[2],17.9 µM
same,TGI,[2],35.3 µM
same,GI50,[3],21.6 µM
same,TGI,[3],58.2 µM
same,GI50,[4],25.8 µM
same,TGI,[4],58.5 µM
same,GI50,[5],17.7 µM
same,TGI,[5],40 µM
same,GI50,[6],17.5 µM
same,TGI,[6],33.8 µM
same,GI50,[7],17 µM
same,TGI,[7],32.4 µM
same,GI50,[8],26 µM
same,TGI,[8],69.4 µM
same,GI50,[9],24.1 µM
same,TGI,[9],57.2 µM
same,GI50,[10],18.4 µM
same,TGI,[10],34.7 µM
same,GI50,[11],16.3 µM
same,TGI,[11],49.7 µM
same,GI50,[12],16.2 µM
same,TGI,[12],30.2 µM
same,GI50,[13],19 µM
same,TGI,[13],42.3 µM
same,GI50,[14],16.6 µM
same,TGI,[14],42.2 µM
same,GI50,[15],19.8 µM
same,TGI,[15],51.3 µM
same,GI50,[16],22.1 µM
same,TGI,[16],51.6 µM
same,GI50,[17],17.7 µM
same,TGI,[17],34.2 µM
same,GI50,[18],14.9 µM
same,TGI,[18],32.2 µM
same,GI50,[19],21.4 µM
same,TGI,[19],52.3 µM
same,GI50,[20],24.3 µM
same,TGI,[20],55.1 µM
same,GI50,[21],17 µM
same,TGI,[21],44.8 µM
same,GI50,[22],16.7 µM
same,TGI,[22],32.4 µM
same,GI50,[23],18.5 µM
same,TGI,[23],33.6 µM
same,GI50,[24],16.2 µM
same,TGI,[24],30.1 µM
same,GI50,[25],22.5 µM
same,TGI,[25],56.2 µM
same,GI50,[26],19.4 µM
same,TGI,[26],37.5 µM
same,GI50,[27],26 µM
same,TGI,[27],77.6 µM
same,GI50,[28],18.6 µM
same,TGI,[28],43.7 µM
same,GI50,[29],27.9 µM
same,TGI,[29],85.7 µM
